The series in a line: thermal stability during DSC measurements (FTIR-ATR and weight before and after). The format is physicochemical. As to conditions: across the range of temperatures used in the DSC study (solid and melt). The protocol: No polymorphs or solvates have so far been reported. However, in order to confirm that no crystal phase or pseudo-polymorphic transitions occurred during solubility measurements, the sediments collected after flask-shake experiments were analyzed using DSC and FTIR-ATR techniques. The results of these measurements are summarized in supplementary materials in Figures S1 and S2. The solvate formation can be identified by the absorption band shifts on the IR spectra. With DSC thermograms, the formation of a new crystal form would be associated with polymorphic transformations or solvate degradation found prior to the melting peak. Both IR spectra and DSC thermograms recorded for sediments were similar to pure phenacetin. […] As documented in Figure 1, both spectra are nearly identical as indicated by the differential plot.
It is notable that the temperature trends are linear, and it is reasonable to expect that a change of heat capacity values associated with melting ∆Cp would adopt a linear temperature relationship.
The calibration was performed using zinc and indium standards.

For the molecule `CCOc1ccc(NC(C)=O)cc1` [phenacetin, N-(4-ethoxyphenyl)acetamide], the thermal stability entry is “stable”.

For the origin of these results see article PMC8272242 (Molecules, 2021).
